Test results from US6774109B2, “Inhibition of amylin release” (Societe de Conseils de Recherches et d'Applications …, priority 1995, dated 2004).
Like-named read-outs stand apart in the source and are kept apart here. Non-standard residues stand in square brackets, D forms with d. Residues, ends and D or L forms follow the SMILES beside them. *: point of attachment. X1 = O=C(CN1CCN(CCO)CC1)*

How the values were obtained:
[1] = molecular target: T1, rat SSTR-2 (Rattus norvegicus, UniProt P30680); assay: Rat SSTR-2 binding assay ([125I-Tyr]MK-678, AR42J cell membranes)
T1 construct: Crude membranes were prepared by homogenizing AR42J cells; host or cells: AR42J rat pancreatic acinar tumor cells
T1 sequence (P30680 whole entry): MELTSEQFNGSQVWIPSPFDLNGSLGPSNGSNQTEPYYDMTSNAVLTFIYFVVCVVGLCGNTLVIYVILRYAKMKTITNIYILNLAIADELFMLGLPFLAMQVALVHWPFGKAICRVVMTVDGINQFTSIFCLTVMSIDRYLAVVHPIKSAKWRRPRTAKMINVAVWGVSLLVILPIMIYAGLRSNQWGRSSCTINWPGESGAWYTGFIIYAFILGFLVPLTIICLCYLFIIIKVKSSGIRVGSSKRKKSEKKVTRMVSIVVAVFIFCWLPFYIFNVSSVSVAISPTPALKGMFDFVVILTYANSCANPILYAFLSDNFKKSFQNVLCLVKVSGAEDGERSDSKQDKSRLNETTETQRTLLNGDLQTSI
Experimental: Crude membranes were prepared by homogenizing AR42J cells (ATCC, Rockville, Md.; ATCC No. CRL1992) in 20 ml of ice-cold 50 mM Tris-HCl (Buffer A) with a POLYTRON homogenizer (Brinkmann Instruments, Westbury, N.Y.) at setting 6, for 15 sec. Additional Buffer A was added to obtain a final volume of 40 ml, and the homogenate was centrifuged in a Sorval SS-34 rotor (DuPont, Newtown, Conn.) at 39,000 g for 10 min at 0-4° C. The resulting supernatant was decanted and discarded. The pellet was rehomogenized in ice-cold Buffer A, diluted, and centrifuged as before. The final pellet was resuspended in the 10 mM Tris HCl and held on ice for the receptor binding assay.
Aliquots of the membrane preparation were incubated for 90 min at 25° C. with 0.05 nM [^125I-Tyr]MK-678 (2000 Ci/mmol) in 50 mM HEPES (pH 7.4) containing a test peptide of various concentrations (e.g., 10^−11 to 10^−6 M), 10 mg/ml bovine serum albumin (fraction V) (Sigma Chemical Co., St. Louis, Mo.), MgCl2 (5 mM), Trasylol (200 KIU/ml), bacitracin (0.02 mg/ml), and phenylmethyl-sulphonyl fluoride (0.02 mg/ml). The final assay volume was 0.3 ml. The incubations were terminated by rapid filtration through GF/C filters (pre-soaked in 0.3% polyethylenimine for 30 min) using a filtration manifold (Brandel, Gaithersburg, Md.).

[2] = molecular target: T2, rat SSTR-5 (Rattus norvegicus, UniProt P30938); assay: Rat SSTR-5 binding assay ([125I-Tyr11]somatostatin-14, rat olfactory bulb membranes)
T2 construct: Crude membranes were prepared by homogenization of rat olfactory bulb cells; tissue Zivic-Miller Laboratory, Inc; host or cells: rat olfactory bulb
T2 sequence (P30938 1-363): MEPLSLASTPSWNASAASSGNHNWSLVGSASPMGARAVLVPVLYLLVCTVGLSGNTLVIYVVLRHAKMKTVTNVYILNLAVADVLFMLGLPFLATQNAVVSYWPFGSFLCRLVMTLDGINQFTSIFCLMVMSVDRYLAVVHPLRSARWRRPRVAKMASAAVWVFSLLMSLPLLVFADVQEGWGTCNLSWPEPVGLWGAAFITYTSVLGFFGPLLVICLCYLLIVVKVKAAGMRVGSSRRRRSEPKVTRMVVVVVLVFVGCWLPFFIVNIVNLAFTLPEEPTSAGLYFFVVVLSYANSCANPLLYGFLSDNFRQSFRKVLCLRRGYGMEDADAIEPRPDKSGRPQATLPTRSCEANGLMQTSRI
Experimental: (§1) Crude membranes were prepared by homogenization of rat olfactory bulb cells (Zivic-Miller Laboratory, Inc., Zellenople, Pa.) in 20 ml of ice-cold 50 mM Tris-HCl with a POLYTRON homogenizer (setting 6, 15 sec). Buffer was added to obtain a final volume of 40 ml, and the homogenate was centrifuged in a Sorval SS-34 rotor at 39,000 g for 10 min at 0-4° C. The resulting supernatant was decanted and discarded. The pellet was rehomogenized in ice-cold buffer, diluted, and centrifuged as before. The final pellet was resuspended in the 10 mM Tris HCl and held on ice for the receptor binding assay.
(§2) The final assay volume was 0.3 ml. The incubations were terminated by rapid filtration through GF/C filters (pre-soaked in 0.3% polyethylenimine for 30 min) using a Brandel filtration manifold. Each tube and filter were then washed three times with 5 ml aliquots of ice-cold buffer.

[3] = system: rat SSTR-5; assay: as above; conditions: rat SSTR-2 Ki / rat SSTR-5 Ki
Experimental: as §1, §2

[4] = molecular target: T3, human SSTR-5 (Homo sapiens, UniProt P35346); assay: Human SSTR-5 binding assay (transfected CHO-K1 cells); conditions: for SSTR-2/SSTR-5 (ratio of Ki's): human SSTR-2 Ki / human SSTR-5 Ki
T3 construct: expressed in transfected cells
T3 sequence (P35346 whole entry): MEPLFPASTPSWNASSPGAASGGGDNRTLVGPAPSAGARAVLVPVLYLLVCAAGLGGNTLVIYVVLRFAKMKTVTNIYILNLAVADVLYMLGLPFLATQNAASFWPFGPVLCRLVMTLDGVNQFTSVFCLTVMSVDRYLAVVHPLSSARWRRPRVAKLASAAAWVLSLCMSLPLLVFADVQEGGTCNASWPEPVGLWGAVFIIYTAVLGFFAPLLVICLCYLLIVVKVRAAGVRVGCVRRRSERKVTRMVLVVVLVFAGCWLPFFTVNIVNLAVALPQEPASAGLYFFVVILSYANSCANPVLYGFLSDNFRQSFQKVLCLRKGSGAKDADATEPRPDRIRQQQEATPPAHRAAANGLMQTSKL
Source text: The human SSTR-5 cDNA clone has been described in the literature. See Panetta, et al., Mol Pharmacol., 45:417-427 (1994); O'Carroll, et al., Mol Pharmacol, 46:291-298 (1994); Yamada, et al., Biochem. Biophys. Res. Commun., 195:844 (1993) [FIG. 1 depicts the DNA sequence of the human SSTR-5.] Using a sense 5′-oligonucleotide primer, immediately preceeding the start codon (residue 30-50), and an antisense 3′-oligonucleotide primer, immediately preceeding the stop codon (residues 1180-1200), a 1170 base pair fragment comprising the full-length coding sequence of the receptor was obtained by standard Reverse-transcription PCR. See Yamada, et al., Biochem. Biophys. Res. Commun., 195:844 (1993) [FIG. 1 depicts the DNA sequence of the human SSTR-5]; Innis, et al., PCR Protocols, A Guide to Methods and Applications, Academic Press, 1990. The identity of the cDNA fragment was verified by DNA sequencing using the dideoxy-chain termination method [Sanger, et al., Proc Natl Acad Sci USA., 74:5463 (1977)] with the Sequenase kit (United States Biochemicals, Arlington Heights, Ill.).
The human SSTR-5 cDNA fragment was inserted into a mammalian expression vector, pCMV to generate the expression plasmid pCMV-human SSTR-5 by blunt-end ligation.
Membranes from the stably transfected cell line were used in the rat SSTR-5 binding protocol described above.

[5] = system: rat Pancreas cells; assay: Amylin release inhibition assay using rat pancreas cells (isolated perfused pancreas); type: cell-based; conditions: 16.7 mM glucose, 10 nM test compound
Experimental: Sprague-Dawley rats (male, 200-300 g) (Harlan-Olac, Bicester, Oxon, UK) were anaesthetized with sodium pentobarbitone (60 mg/kg). […] The pancreases were perfused, as described in Dunmore, et al., J. Endocrinol., 1993, 137, 375-381, with modified Krebs-Ringer bicarbonate buffer containing 3% dextran T40 (Pharmacia, Milton Keynes, Bucks, UK) and 1% high purity bovine serum albumin (Sigma, Poole, Dorset, UK). After an initial 15-min period to allow for stabilization, the isolated pancreases were perfused at sequential 10 min. intervals, at a rate of 4.5-5.0 ml/min, with the following buffer compositions: 1) Buffer 1: Krebs-Ringer bicarbonate buffer containing 5.6 mM glucose (to examine baseline amylin secretion); 2) Buffer 2: Krebs-Ringer bicarbonate buffer containing 16.7 mM glucose (to examine high glucose stimulated secretion); 3) Buffer 3: Krebs-Ringer bicarbonate buffer containing 16.7 mM glucose in the presence of 10 nM of test compound (to examine the activity of test compounds on high glucose stimulated amylin secretion); and 4) Buffer 2: Krebs-Ringer bicarbonate buffer containing 16.7 mM glucose (to re-examine high glucose stimulated amylin secretion in order to assess the reversibility of the activity of the test compounds).
Fractions of the perfusate were collected on ice every minute in the presence of 400 KIU/ml aprotinin (Bayer, Hayward's Heath, W. Sussex, UK). Fractions were stored at −20° C. until assay. Perfusates collected were divided into 3×1.5 ml aliquots and assayed for amylin by radioimmunoassay as described in Dunmore, et al., J. Endocrinol., 1993, 137:375. Amylin was assayed using reagents supplied by Peninsula Laboratories Ltd. (St. Helens, Merseyside, UK). These reagents include ^125I-labelled amylin, rabbit anti-rat amylin antibody, and rat amylin. Bound amylin was precipitated using goat anti-rabbit second antibody—coupled cellulose (Sac-Cal, IDS, Boldon, Tyneawear, UK).

[6] = molecular target: human SSTR-2 (Homo sapiens, UniProt P30874); assay: Human SSTR-2 binding assay (transfected CHO-K1 cells)
Chain of human SSTR-2 (P30874 whole entry): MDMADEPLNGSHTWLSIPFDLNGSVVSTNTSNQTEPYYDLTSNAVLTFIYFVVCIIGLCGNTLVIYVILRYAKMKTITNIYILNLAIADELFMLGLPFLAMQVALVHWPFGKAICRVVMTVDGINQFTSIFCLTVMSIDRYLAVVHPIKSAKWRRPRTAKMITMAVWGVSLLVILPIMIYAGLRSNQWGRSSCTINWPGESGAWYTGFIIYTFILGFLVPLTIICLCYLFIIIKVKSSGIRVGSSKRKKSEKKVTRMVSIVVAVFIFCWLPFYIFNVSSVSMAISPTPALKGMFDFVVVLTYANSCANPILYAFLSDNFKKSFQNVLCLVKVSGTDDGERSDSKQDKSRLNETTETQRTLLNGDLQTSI
Experimental: CHO-K1 (ovary, Chinese hamster) cells were obtained from the American Type Culture Collection, Rockville, Md. […] The cells were grown and maintained in Ham's F12 media (Gibco BRL, Grand Island, N.Y.) supplemented with 10% fetal bovine serum under standard tissue culture conditions.
For transfection, the cells were seeded at a density 1×10^6/60 cm^2 plate (Baxter Scientific Products, McGaw Park, Ill.). DNA mediated transfection was carried out using the calcium phosphate co-precipitation method (Ausubel, et al., Current Protocols in Molecular Biology, John Wiley & Sons, 1987). The plasmid pRSV-neo (ATCC; ATCC No. 37198) was included as a selectable marker at 1/10 the concentration of the expression plasmid. CHO-K1 clonal cell lines that have stably inherited the transfected DNA were selected for growth in Ham's F12 media containing 10% fetal bovine serum and 0.5 mg/ml of G418 (Sigma Chemical Co., St. Louis, Mo.). The cells were ring-cloned and expanded in the same media for analysis.

[7] = rat, AR42J cell membranes, radioligand [125I-Tyr]MK-678 0.05 nM, read-out: Ki SSTR-2

| Molecule | Ki [1] | Ki ([2]; read-out: Ki SSTR-5) | SSTR-2/SSTR-5 (ratio of Ki's) [3] | SSTR-2/SSTR-5 (ratio of Ki's) [4] | decrease in glucose stimulated amylin secretion [5] | Ki [6] | Ki [1, 7] | Ki ([4]; human receptor in CHO-K1 cells, LC 0.05 nM, LEC 0.18 nM, read-out: Ki SSTR-5) | Ki [4] | Ki [2] | effect on glucose-induced amylin secretion (in words) [5] |
| --- | --- | --- | --- | --- | --- | --- | --- | --- | --- | --- | --- |
| C[C@@H](O)[C@H](NC(=O)[C@H](Cc1ccccc1)NC(=O)[C@@H](NC(=O)[C@H](CCCCN)NC(=O)[C@@H](Cc1c[nH]c2ccccc12)NC(=O)[C@H](Cc1ccccc1)NC(=O)[C@H](Cc1ccccc1)NC(=O)[C@H](N)Cc1ccccc1)[C@@H](C)O)C(N)=O [BIM-23052, H-D-Phe-Phe-Phe-D-Trp-Lys-Thr-Phe-Thr-NH2] (H-[dF]FF[dW]KTFT-NH2) | 8.04 nM | 3.16 nM | 2.54 | 11.5 | 78% | 14.1 nM |  |  |  |  |  |
| C[C@@H](O)[C@H](NC(=O)[C@H](Cc1ccccc1)NC(=O)[C@@H](NC(=O)[C@H](CCCCN)NC(=O)[C@@H](Cc1c[nH]c2ccccc12)NC(=O)[C@H](Cc1ccccc1)NC(=O)[C@H](Cc1ccccc1)NC(=O)[C@@H](Cc1ccccc1)NC(=O)CN1CCN(CCO)CC1)[C@@H](C)O)C(N)=O [Analog II] (X1-[dF]FF[dW]KTFT-NH2) |  | 5.38 nM |  |  |  | 4.15 nM | 305 nM | 1.29 nM |  |  |  |
| C[C@@H](O)[C@H](NC(=O)[C@H](Cc1ccccc1)NC(=O)[C@@H](NC(=O)[C@H](CCCCN)NC(=O)[C@@H](Cc1c[nH]c2ccccc12)NC(=O)[C@H](Cc1ccccc1)NC(=O)[C@H](Cc1ccccc1)NC(=O)[C@H](N)Cc1ccccc1)[C@@H](C)O)C(=O)O [Analog I, H-D-Phe-Phe-Phe-D-Trp-Lys-Thr-Phe-Thr-OH] (H-[dF]FF[dW]KTFT-OH) |  | 3.57 nM | 10.4 | 1.14 |  | 14.2 nM | 37.2 nM |  | 12.4 nM |  |  |
| CC(C)[C@@H]1NC(=O)[C@H](CCCCN)NC(=O)[C@@H](Cc2c[nH]c3ccccc23)NC(=O)[C@H](Cc2ccc(O)cc2)NC(=O)[C@@H](NC(=O)[C@H](N)Cc2ccc3ccccc3c2)CSSC[C@@H](C(=O)N[C@H](C(N)=O)[C@@H](C)O)NC1=O [BIM-23014, H-D-P-Nal-Cys-Tyr-D-Trp-Lys-Val-Cys-Ser-NH2, reference compound] | 0.34 nM |  |  |  |  | 1.09 nM |  |  |  | 64.8 nM | no effect |
| C[C@@H](O)[C@@H]1NC(=O)[C@H](CCCCN)NC(=O)[C@@H](Cc2c[nH]c3ccccc23)NC(=O)[C@H](Cc2ccccc2)NC(=O)[C@@H](NC(=O)[C@H](N)Cc2ccccc2)CSSC[C@@H](C(=O)N[C@H](CO)[C@@H](C)O)NC1=O [SMS 201-995, H-D-Phe-Cys-Phe-D-Trp-Lys-Thr-Cys-Threoninol, reference compound] |  |  |  |  |  |  |  |  |  | 9.14 nM |  |
| Somatostatin-14 [reference compound] |  |  | 0.34 | 0.20 |  |  |  |  |  |  | inhibited glucose-induced amylin secretion |
